{"source": "patent US9597359B2", "about": "“Production of dentin, cementum and enamel by cells” (The Trustees of Columbia University in the City of New York, priority 2010, dated 2017)", "key": {"[1]": {"system": "dental pulp stem cells or periodontal ligament stem cells", "test": "osteogenic and odontogenic differentiation of dental pulp and periodontal ligament stem cells", "type": "cell-based, human", "details": "culture with amelogenin (e.g., recombinant)", "experimental": "Exfoliating deciduous incisors and permanent third molars of multiple donors were collected. Dental pulp (DP) and periodontal ligament (PDL) stem cells were isolated and enzyme-digested per known methods (Yang et al., 2010, Clones of ectopic stem cells in the regeneration of muscle defects in vivo. PloS One. 2010 Oct. 20; 5 (10)). Mononucleated and adherent cells were cultured in DMEM-LG medium containing 10% FBS and 1% antibiotics in 10 cm cell culture dishes. These isolated cells contain single clones of multipotent stem cells that readily express sternness markers such as Stro-1, Oct4, Nanog, and CD146. DSCs and PDL cells were expanded and subjected to osteogenic and odontogenic differentiation. Briefly, DP and PDL stem cells were cultured in DMEM-LG medium containing 10% FBS, 50 μg/ml ascorbic acid and 1 mM 2-glycerophosphate in the presence or absence of recombinant amelogenin. The osteoaenic and odontoaenic differentiation was determined by the expression of RUNX2, dentin sialophosphoprotein (DSPP) and Dentin Matrix Protein 1 (DMP-1) by Real Time PCR, as well as Von Kossa and alkaline phosphatase staining. The level of active […] was measured by immune-fluorescence staining and western blotting."}, "active beta catenin": {"system": "active beta catenin", "test": "active beta catenin western blotting, PDL cells", "type": "cell-based, human", "details": "PDL cells treated for 16 hours", "experimental": "(§1) PDL cells were treated with amelogenin for 16 hours. The active beta catenin level were determined by western blotting (see e.g., FIG. 18A). […] Wnt signaling reporter TOPFLASH was transfected into PDL cells and then the cells were treated with amelogenin. The luciferase activity was measured 48 hours after treatment (see e.g., FIG. 18C). The primary osteoblasts were isolated from Wnt signaling reporter mice, TOPGAL. 48 hours after treatment, the LacZ activity was measured (see e.g., FIG. 18D). Fibrin gel containing 50 μg/ml was implanted subcutaneously into the TOPGAL mice. 1 week post-implantation, the gel was harvested. LacZ staining was performed. […] Recombinant amelogenin is 6×His tagged. The distribution of amelogenin is shown overlapped with the beta catenin signaling as indicated by the LacZ staining (see e.g., FIG. 18F)."}, "DSCs": {"system": "DSCs", "test": "cell proliferation by cell number count", "type": "cell-based", "details": "3000 cells seeded, counted every 2 days", "experimental": "3000 cells were seeded in the 12 well plate and the cell number was counted every 2 days (see e.g., FIG. 28A-B)."}, "[2]": {"system": "Dental pulp stem cells (DPSCs)", "test": "marker gene expression by RT-PCR in dental pulp stem cells in osteogenic medium", "type": "cell-based, human", "details": "3 weeks", "experimental": "Dental pulp stem cells (DPSCs) were cultured in osteogenic medium for 3 weeks (see e.g., FIG. 13A-B). The osteogenic differentiation was determined by ALP and Van Kossa staining (see e.g., FIG. 13B). The expression of marker genes, RunX2 and DSPP, were determined by RT-PCR (see e.g., FIG. 13C)."}, "dental pulp cells": {"system": "dental pulp cells", "test": "DSP immunostaining of dental pulp cells", "type": "cell-based, human", "details": "amelogenin group", "text": "Immunostaining verified DSP-positive cells in the amelogenin group (see e.g., FIG. 27A-B″)."}, "PDL cells [3]": {"system": "PDL cells", "test": "differentiation markers by Real Time PCR in PDL cells in osteogenic media", "type": "cell-based, human", "details": "chemically-defined osteogenic media", "experimental": "(§2) Human PDL cells were seeded in the 6 well plate and cultured in presence of 50 μg/ml ascorbic acid. The cells were treated with amelogenin. […] The total RNA was extracted and the expression of type I collagen was determined by Real Time PCR (see e.g., FIG. 17B). […] PDL cells were treated with amelogenin in the chemically-defined osteogenic media (see FIG. 17C)."}, "Human PDL cells [4]": {"system": "Human PDL cells", "test": "Von Kossa staining of human PDL cells transfected with ICAT plasmid", "type": "cell-based", "details": "osteogenic media, 2 weeks", "experimental": "Human PDL cells were transfected with the Wnt signaling inhibitor, ICAT plasmid. The cells were treated with amelogenin in the osteogenic media for 2 weeks."}, "[5]": {"system": "Wnt signaling reporter TOPFLASH", "test": "Wnt signaling reporter TOPFLASH luciferase activity in PDL cells", "type": "cell-based, human", "details": "48 hours after treatment", "experimental": "as §1"}, "beta catenin [6]": {"system": "beta catenin", "test": "beta catenin translocation by immunofluorescence staining in PDL cells", "type": "cell-based, human", "experimental": "The PDL cells were treated with recombinant amelogenin overnight. The translocation of beta catenin was determined by immunofluorescence staining (see e.g., FIG. 7A-F). Briefly, the cells were fixed with formalin for 5 min and treated with PBS with 0.1% triton for 5 min. The cells were then incubated with anti-beta catenin antibody overnight, after washing with PBS with 0.5% Tween-20, then incubated with secondary antibody labeled with fluorescence dye. […] Meanwhile, the PDL cells treated with amelogenin were lysed with PBS lysis buffer containing 1% NP-40 and protease inhibitor, phosphotase inhibitor cocktails. The non-phosphorylated beta catenin levels were determined by western blotting using anti-active beta catenin antibody (anti-ABC, millipore) (see e.g., FIG. 7G).\nPDL cells were treated with amelogenin for 16 hours. The active beta catenin level were determined by western blotting (see e.g., FIG. 18A). […] Wnt signaling reporter TOPFLASH was transfected into PDL cells and then the cells were treated with amelogenin. The luciferase activity was measured 48 hours after treatment (see e.g., FIG. 18C). The primary osteoblasts were isolated from Wnt signaling reporter mice, TOPGAL. 48 hours after treatment, the LacZ activity was measured (see e.g., FIG. 18D). Fibrin gel containing 50 μg/ml was implanted subcutaneously into the TOPGAL mice. 1 week post-implantation, the gel was harvested. […]"}, "beta catenin signaling": {"system": "beta catenin signaling", "test": "fibrin gel implanted subcutaneously into TOPGAL mice, LacZ staining", "type": "in vivo", "details": "fibrin gel containing 50 μg/ml, subcutaneous, 1 week post-implantation", "experimental": "as §1"}, "[7]": {"system": "Mesenchymal stem cell C3H10t1/2 cells", "test": "RT-PCR marker expression in C3H10t1/2 cells in osteogenic medium", "type": "cell-based", "details": "C3H10t1/2, osteogenic medium", "text": "(§3) At 3 weeks, amelogenin-treated cells were positive for both ALP and Van Kossa (see e.g., FIG. 15A-B). […] However, the cells tested negative for DSPP."}, "PDL cells [8]": {"system": "PDL cells", "test": "cell count of PDL cells", "type": "cell-based, human", "details": "counted at 0, 2 and 4 days", "experimental": "PDL cells and dental pulp cells (DPSC) were seeded in 12 well plate with the cells number indicated. The cell treated with amelogenin and cell number were counted at 0, 2, and 4 days (see e.g., FIG. 9A-B)."}, "Human PDL cells [9]": {"system": "Human PDL cells", "test": "von Kossa staining of human PDL cells treated with amelogenin, BIO or Wnt3A", "type": "cell-based", "details": "2 weeks; amelogenin 5 μg/ml, BIO 1 μg/ml, Wnt3A 50 ng/ml", "experimental": "The human PDL cells were treated with amelogenin, BIO, or Wnt3A as indicated for 2 weeks."}, "PDL cells [10]": {"system": "PDL cells", "test": "Alkaline phosphatase and von Kossa staining of PDL cells in osteogenic media", "type": "cell-based, human", "details": "chemically-defined osteogenic media", "experimental": "as §2"}, "Human PDL cells [11]": {"system": "Human PDL cells", "test": "trichrome staining of collagen matrix in human PDL cells", "type": "cell-based", "details": "50 μg/ml ascorbic acid, 2 weeks post-treatment", "experimental": "as §2"}, "[12]": {"system": "Mesenchymal stem cell C3H10t1/2 cells", "test": "ALP and Van Kossa staining of C3H10t1/2 cells in osteogenic medium", "type": "cell-based", "details": "C3H10t1/2, osteogenic medium", "experimental": "Mesenchymal stem cell C3H10t1/2 cells were cultured in osteogenic medium for 2 weeks (see e.g., FIG. 14A).\nas §3"}, "Human PDL cells [13]": {"system": "Human PDL cells", "test": "type I collagen expression by Real Time PCR in human PDL cells", "type": "cell-based", "details": "2 weeks post-treatment", "experimental": "as §2"}, "beta catenin [14]": {"system": "beta catenin", "test": "beta catenin translocation by immunofluorescence staining in dental pulp cells", "type": "cell-based, human", "details": "dental pulp cells treated with recombinant amelogenin overnight", "experimental": "(§4) The dental pulp cells were treated with recombinant amelogenin overnight. The translocation of beta catenin was determined by immunofluorescence staining (see e.g., FIG. 8A-F). Briefly, the cells were fixed with formalin for 5 min and treated with PBS with 0.1% triton for 5 min. The cells were then incubated with anti-beta catenin antibody overnight, after washing with PBS with 0.5% Tween-20, then incubated with secondary antibody labeled with fluorescence dye. […] The PDL cells treated with amelogenin were lysed with PBS lysis buffer containing 1% NP-40 and protease inhibitor, phosphatase inhibitor cocktails. The non-phosphorylated beta-catenin levels were determined by western blotting using anti-active beta catenin antibody (anti-ABC, millipore) (see e.g., FIG. 8G)."}, "[15]": {"system": "Wnt signaling reporter (TOPGAL osteoblasts)", "test": "LacZ activity in primary osteoblasts from TOPGAL mice", "type": "cell-based", "details": "48 hours after treatment", "experimental": "as §1"}, "[16]": {"system": "non-phosphorylated beta-catenin", "test": "non-phosphorylated beta-catenin western blotting, dental pulp cells", "type": "cell-based, human", "details": "anti-active beta catenin antibody", "experimental": "as §4"}}, "data": [{"molecule": "amelogenin", "values": [{"measurement": "ALP and Van Kossa staining", "setting": "[1]", "result": "increased"}, {"measurement": "DSPP expression", "setting": "[1]", "result": "increased"}, {"measurement": "active beta catenin level", "setting": "active beta catenin", "result": "exhibited active beta-catenin levels"}, {"measurement": "cell proliferation (cell number)", "setting": "DSCs", "result": "more rapid proliferation"}, {"measurement": "DSPP expression", "setting": "[2]", "result": "DSPP-positive"}, {"measurement": "DSP immunostaining", "setting": "dental pulp cells", "result": "DSP-positive"}, {"measurement": "differentiation markers (Real Time PCR)", "setting": "PDL cells [3]", "result": "upregulation"}, {"measurement": "cell differentiation (Von Kossa staining)", "setting": "Human PDL cells [4]", "result": "demonstrated cell differentiation"}, {"measurement": "Wnt activity (TOPFLASH luciferase activity)", "setting": "[5]", "result": "increased"}, {"measurement": "nuclear translocalization of beta catenin", "setting": "beta catenin [6]; PDL cells treated for 16 hours", "result": "nuclear translocalization"}, {"measurement": "translocation of beta catenin", "setting": "beta catenin [6]; PDL cells treated with recombinant amelogenin overnight", "result": "beta catenin translocalized into nucleus"}, {"measurement": "LacZ staining around implanted gel", "setting": "beta catenin signaling", "result": "LacZ positive cells were found in the surrounding area of the gel"}, {"measurement": "DSPP", "setting": "[7]; 3 weeks", "result": "negative"}, {"measurement": "RunX2 expression", "setting": "[7]; RT-PCR", "result": "induced"}, {"measurement": "cell counts", "setting": "PDL cells [8]", "result": "temporal increase in cell counts"}, {"measurement": "cell differentiation (von Kossa staining)", "setting": "Human PDL cells [9]", "result": "cell differentiation"}, {"measurement": "cell differentiation (Alkaline phosphatase and von Kossa staining)", "setting": "PDL cells [10]", "result": "cell differentiation was confirmed"}, {"measurement": "collagen matrix synthesis (trichrome staining)", "setting": "Human PDL cells [11]", "result": "promote the PDL cells matrix synthesis"}, {"measurement": "ALP staining", "setting": "[12]; 2 weeks", "result": "positive"}, {"measurement": "Van Kossa staining", "setting": "[12]; 2 weeks", "result": "negative"}, {"measurement": "ALP staining", "setting": "[12]; 3 weeks", "result": "positive"}, {"measurement": "Van Kossa staining", "setting": "[12]; 3 weeks", "result": "positive"}, {"measurement": "type I collagen mRNA", "setting": "Human PDL cells [13]", "result": "upregulate"}, {"measurement": "translocation of beta catenin", "setting": "beta catenin [14]", "result": "beta catenin translocalized into nucleus"}, {"measurement": "LacZ activity", "setting": "[15]", "result": "increased"}, {"measurement": "non-phosphorylated beta-catenin levels", "setting": "[16]", "result": "increased"}]}, {"molecule": "O=C1Nc2cc(Br)ccc2/C1=C1/Nc2ccccc2/C1=N\\O", "note": "[BIO, reference compound]", "values": [{"measurement": "cell differentiation (von Kossa staining)", "setting": "Human PDL cells [9]", "result": "cell differentiation"}]}, {"molecule": "Wnt3A: Wnt3A used at 50 ng/ml on human PDL cells as comparator (protein, UniProt P56704 19-352, looked up) Protein Wnt-3a: SYPIWWSLAVGPQYSSLGSQPILCASIPGLVPKQLRFCRNYVEIMPSVAEGIKIGIQECQHQFRGRRWNCTTVHDSLAIFGPVLDKATRESAFVHAIASAGVAFAVTRSCAEGTAAICGCSSRHQGSPGKGWKWGGCSEDIEFGGMVSREFADARENRPDARSAMNRHNNEAGRQAIASHMHLKCKCHGLSGSCEVKTCWWSQPDFRAIGDFLKDKYDSASEMVVEKHRESRGWVETLRPRYTYFKVPTERDLVYYEASPNFCEPNPETGSFGTRDRTCNVSSHGIDGCDLLCCGRGHNARAERRREKCRCVFHWCCYVSCQECTRVYDVHTCK", "values": [{"measurement": "cell differentiation (von Kossa staining)", "setting": "Human PDL cells [9]", "result": "cell differentiation"}]}]}
